In general, Kd refers to the concentration at which binding is half-saturated.

We go through 2 molecules from patent publication US7294457B2, “Direct binding assay for identifying inhibitors of HCV polymerase” (priority 2001, dated 2007).

Experiment [1] has as its target T1, His-NS5BΔ21(H77c, HCV genotype 1a) polymerase (Hepatitis C virus genotype 1a, UniProt P27958).
T1 construct: The HCV genotype 1a NS5B polymerase [termed His-NS5BΔ21 (H77c, 1a); 4]; His tag (N); made in house; host or cells: E. coli JM109 (DE3), pET vector
Kind of experiment: Fluorescence anisotropy titration of probe with HCV genotype 1a polymerase. The note with it: Kd of probe for HCV genotype 1a polymerase, standard conditions of Example 3. The class given is binding. As for the experimental part:
(§1) The fluorescein labeled probe was diluted to the desired concentration in 20 mM Tris-HCl pH 7.5, 1 mM EDTA, 5 mM MgCl2, 1 mM DTT and 10% DMSO. The NS5BΔ21-His protein was serially diluted in 25 mM Tris-HCl pH 7.5, 300 mM NaCl, 5 mM DTT, 1 mM EDTA, 30% glycerol and 0.1% IGEPAL. Total volume of the reaction was 500 μL and final assay buffer was 20 mM Tris-HCl pH 7.5, 1 mM EDTA, 5 mM MgCl2, 1 mM DTT, 30 mM NaCl, 3% glycerol, 0.01% IGEPAL and 5% DMSO. Anisotropy measurements were performed on a SLM Aminco 8100 Spectrofluorometer equipped with a 450-W xenon arc lamp and a T-optics configuration. Excitation wavelength was at 493 nm and emission was monitored at 530 nm. In each anisotropy measurement, the parallel and perpendicular intensities of the background buffer solution was subtracted from the measured values of the sample and the anisotropy was calculated. Data were processed on SAS program (SAS Institute Inc., NC, USA) for a non linear regression to obtain the direct binding equilibrium constant and other parameters, and the plot of the regressed fit over the experimental data.
(§2) The GBV-B and the HCV 1a polymerases were used to titrate probe ii, using the protocol described in Example 3. […] Kd values for a series of compounds were determined with these two HCV (genotypes 1a and 1b) polymerases, using the assay format described in Example 4.
A general note: In fluorescence polarisation assays a small probe gives low polarisation when free and higher when bound to something large.

Experiment [2] concerns the target T2, NS5BΔ21-His polymerase (Hepatitis C virus genotype 1b, UniProt P26663).
T2 construct: a variant that lacks the C-terminal 21 amino acids normally found on the mature NS5B; hexa-histidine (C); made in house; host or cells: E. coli JM109 (DE3), pET vector
Kind of experiment: Fluorescence anisotropy titration of probe with NS5BΔ21-His. Type of experiment: binding, HCV. The note with it: Kd of probe for NS5BΔ21-His. The method, then:
Titration of the probe with the enzyme was performed as follows:
as §1, with “data. An example of a titration curve obtained with probe (i) is shown on FIG. 1.” for “data.”
The usefulness of this polarization assay is evident when binding of compounds has to be studied under different conditions. For example, binding constants of the probes have been determined at different concentrations of salts and pH. FIGS. 5 to 8 show the binding curves of probe (i) in final NaCl concentrations ranging from 30 mM to 200 mM. […] All other reagents in the assay were as described in the standard protocol (Example 3). […] Studies at pH 6.5 were also performed to determine the Kd of the probe (i) at lower pH. For these assays, 20 mM Phosphate buffer pH 6.5 was used in place of Tris; all other reagents of the assay were as described in the 96-well Polarization assay (Example 4). […] Having established these Kd values under different experimental conditions, it is then trivial to determine what concentrations of probe and enzyme should be used to obtain 70% of binding of the probe with the equilibrium equation. Once these values are obtained, compounds of interest can easily be studied under the new conditions to determine their Kd values.

In experiment [3] the target is T3, GBV-BΔ23-His polymerase (Hepatitis GB virus B, UniProt Q69422).
T3 construct: The GBV-B polymerase enzyme (termed GBV-BΔ23-His; 3); His tag (C); made in house; host or cells: E. coli JM109 (DE3), pET vector
As to the kind of experiment: Fluorescence anisotropy titration of probe with GBV-B polymerase. Type of experiment: binding. As for the experimental part: as §1, with “data. […]” for “data.”
as §2

In experiment [4] the target is T4, His-NS5BΔ21 polymerase (Hepatitis C virus genotype 1b, UniProt P26663).
T4 construct: a variant that lacks the C-terminal 21 amino acids normally found on the mature NS5B; hexa-histidine (N); made in house; host or cells: E. coli JM109 (DE3), pET vector
Kind of experiment: Fluorescence anisotropy/polarization titration of probe with His-NS5BΔ21. The class given is binding, HCV. The note with it: Kd of probe for N-terminally tagged His-NS5BΔ21, standard conditions. The method, then: as §1, with “Data were processed on SAS program (SAS Institute Inc., NC, USA) for a non linear regression to obtain the direct binding equilibrium constant and other parameters, and the plot of the regressed fit over the experimental data.” left out
To obtain Kd values of different compounds competing with these probes (test compounds), this assay was transformed to a more amenable format and a binding assay was made suitable for a 96-well microplate reader. […] The NS5BΔ21-His concentration in the assay was calculated to obtain 70% of binding of the probe; these conditions allowed for the displacement of the probe by test compounds. […]
The Fluorescence polarization assay was also used with other constructs of our HCV polymerase enzyme. […]

The mark [5] stands for this setting: standard conditions of Example 3 (Tris-HCl pH 7.5, 30 mM NaCl).

Several values for one entry are separate records, joined by “and”; a condition that tells them apart may be missing. Equal entries are not always repeated.

`O=C(O)COc1ccc2[nH]cc(C[C@H](NC(=O)c3ccc4c(c3)nc(-c3ccc(OCC(=O)NCCNC(=S)Nc5ccc(-c6c7ccc(=O)cc-7oc7cc(O)ccc67)c(C(=O)O)c5)cc3)n4C3CCCCC3)C(=O)O)c2c1` [probe (ii), 5-(3-{2-[2-(4-{5-[(S)-1-Carboxy-2-(5-carboxymethoxy-1-H-indol-3-yl)-ethylcarbamoyl]-1-cyclohexyl-1H-benzimidazol-2-yl}-phenoxy)-ethanoylamino]-ethyl}-thioureido)-2-(6-hydroxy-3-oxo-3H-xanthen-9-yl)-benzoic acid]: the Kd in experiment [1] is 18 nM and 18.2 nM; in experiment [2] (setting [5]), 6 nM; in experiment [3] (Kd of probe for GBV-BΔ23-His polymerase, estimated value with an incomplete curve), 1800 nM and 1790 nM. In experiment [3] (fold higher Kd, specificity), the “Kd with GBV-B polymerase relative to HCV polymerases” value was “at least 100 fold”.
For the molecule `O=C(O)COc1ccc2[nH]cc(C[C@H](NC(=O)c3ccc4c(c3)nc(-c3ccc(C(=O)NCCNC(=S)Nc5ccc(-c6c7ccc(=O)cc-7oc7cc(O)ccc67)c(C(=O)O)c5)cc3)n4C3CCCCC3)C(=O)O)c2c1` [probe (i), 5-[3-(2-{[1-(4-{5-[(S)-1-Carboxy-2-(5-carboxymethoxy-1-H-indol-3-yl)-ethylcarbamoyl]-1-cyclohexyl-1H-benzimidazol-2-yl}-phenyl)-methanoyl]-amino}-ethyl)-thioureido]-2-(6-hydroxy-3-oxo-3H-xanthen-9-yl)-benzoic acid], the dissociation constant Kd in experiment [2] (20 mM Phosphate buffer pH 6.5 in place of Tris) was 33 nM; in experiment [2] (30 mM NaCl), 15 nM and 15.3 nM; in experiment [2] (100 mM NaCl) it was 39 nM; in experiment [2] (150 mM NaCl) it was 78 nM; in experiment [2] (200 mM NaCl) it was 122 nM; in experiment [2] (setting [5]), 15 nM and 12.6 nM. Also, in experiment [4], the Kd is 18 nM and 18.1 nM.
